Calls of active or inactive are those of the source.
Assays:
[1] = Clearance in BALB/c mouse at 1 mg/kg, iv; type: ADME, organism-based; details: in vivo
[2] = AUC(0 to t) in BALB/c mouse at 5 mg/kg, ip; type: ADME, organism-based; design: dose 5 mg/kg, route ip; details: in vivo
[3] = test system: Mus musculus; experiment: Antinociceptive activity against carrageenan-induced inflammatory C57BL/6 mouse model assessed as reduction in paw thickness at 20 mg/kg, ip administered with CB2 receptor antagonist, AM630 at 10 mins prior to drug challenge and measured at 5 hrs and 2 hrs following carrageenan and compound challenge respectively by digital caliper analysis; type: functional, organism-based
[4] = Cmax in BALB/c mouse at 5 mg/kg, po; type: ADME, organism-based; design: dose 5 mg/kg, route po; details: in vivo
[5] = Intrinsic clearance in rat liver microsomes at 10 uM measured per mg protein; type: ADME, Microsome; details: read-out: CLH
[6] = Protein binding in human plasma by dialysis method; type: ADME, cell-free; details: read-out: PPB (converted)
[7] = Half life in BALB/c mouse at 5 mg/kg, ip; type: ADME, organism-based; details: in vivo
[8] = Cmax in BALB/c mouse at 5 mg/kg, ip; type: ADME, organism-based; design: dose 5 mg/kg, route ip; details: in vivo
[9] = test system: Mus musculus; experiment: Antinociceptive activity against ip dosed carrageenan-induced inflammatory C57BL/6 mouse model assessed as reduction in hyperalgesia by measuring increase in paw withdrawal threshold measured at 5 hrs and 2 hrs following carrageenan and compound challenge respectively by plantar esthesiometer analysis; type: functional, organism-based; details: dose 5-20 mg/kg
[10] = test system: Cannabinoid receptor 2 (Homo sapiens), P34972 [UNDEFINED MUTATION]; experiment: Agonist activity at CB2 receptor F183ECL2A mutant (unknown origin) expressed in CHO cells assessed as inhibition of forskolin-stimulated intracellular cAMP accumulation measured after 30 mins by Glosensor assay; type: cell-based
[11] = biological target: T1, Cannabinoid receptor 2 (Homo sapiens, UniProt P34972); experiment: Agonist activity at N-terminal HA/Flag-tagged CB2 receptor (unknown origin) expressed in CHO cells assessed as increase in Akt phosphorylation measured after 15 mins by western blot analysis; type: functional, cell-based; details: filed as agonist, dose 12-300 nM
[12] = Half life in BALB/c mouse at 1 mg/kg, iv; type: ADME, organism-based; details: in vivo
[13] = Protein binding in rat plasma by dialysis method; type: ADME, cell-free; details: read-out: PPB (converted)
[14] = Intrinsic clearance in human liver microsomes at 10 uM measured per mg protein; type: ADME, Microsome; details: read-out: CLH
[15] = Oral bioavailability in BALB/c mouse at 5 mg/kg; type: ADME, organism-based; details: in vivo
[16] = test system: Mus musculus; experiment: Antinociceptive activity against carrageenan-induced inflammatory C57BL/6 mouse model assessed as reduction in hyperalgesia by measuring increase in paw withdrawal threshold at 20 mg/kg, ip administered with CB2 receptor antagonist, AM630 at 10 mins prior to drug challenge and measured at 5 hrs and 2 hrs following carrageenan and compound challenge respectively by plantar esthesiometer analysis; type: functional, organism-based
[17] = Clearance in BALB/c mouse at 5 mg/kg, po; type: ADME, organism-based; details: in vivo
[18] = MRT(0 to t) in BALB/c mouse at 5 mg/kg, po; type: ADME, organism-based; details: in vivo
[19] = test system: CHO; experiment: Agonist activity at CB2 receptor W1945.43A mutant (unknown origin) expressed in CHO cells assessed as inhibition of forskolin-stimulated intracellular cAMP accumulation measured after 30 mins by Glosensor assay; type: cell-based; details: Homo sapiens
[20] = Intrinsic clearance in human liver at 10 uM measured per kg body weight; type: ADME, tissue-based
[21] = biological target: T1, Cannabinoid receptor 2; experiment: Agonist activity at N-terminal HA/Flag-tagged CB2 receptor (unknown origin) expressed in CHO cells assessed as increase in ERK1/2 phosphorylation at 300 nM measured after 15 mins in presence of CB2 receptor antagonist, AM630 by western blot analysis; type: functional, cell-based
[22] = Tmax in BALB/c mouse at 5 mg/kg, ip; type: ADME, organism-based; details: in vivo
[23] = test system: CHO; experiment: Agonist activity at CB2 receptor F872.57A mutant (unknown origin) expressed in CHO cells assessed as inhibition of forskolin-stimulated intracellular cAMP accumulation measured after 30 mins by Glosensor assay; type: cell-based; details: Homo sapiens
[24] = Tmax in BALB/c mouse at 5 mg/kg, po; type: ADME, organism-based; details: in vivo
[25] = Clearance in BALB/c mouse at 5 mg/kg, ip; type: ADME, organism-based; details: in vivo
[26] = biological target: T1, Cannabinoid receptor 2; experiment: Agonist activity at N-terminal HA/Flag-tagged CB2 receptor (unknown origin) expressed in CHO cells assessed as increase in ERK1/2 phosphorylation measured after 15 mins by western blot analysis; type: functional, cell-based; details: filed as agonist, dose 12-300 nM
[27] = Half life in BALB/c mouse at 20 mg/kg, po; type: ADME, organism-based; details: in vivo
[28] = biological target: T1, Cannabinoid receptor 2; experiment: Agonist activity at LgBiT-fused CB2 receptor (unknown origin) coexpressed with miniGalphai-SmBiT in HEK293T cells assessed as G-protein recruitment by measuring complementation measured after 10 mins by NanoBiT luciferase assay; type: functional, cell-based
[29] = Metabolic stability of the compound in human liver microsomes assessed as parent compound remaining at 10 uM measured after 60 mins; type: ADME, Microsome; details: read-out: Stability
[30] = Half life in rat liver microsomes at 10 uM; type: ADME, Microsome
[31] = Protein binding in mouse plasma by dialysis method; type: ADME, cell-free; details: read-out: PPB (converted)
[32] = biological target: T1, Cannabinoid receptor 2; experiment: Agonist activity at N-terminal HA/Flag-tagged CB2 receptor (unknown origin) expressed in CHO cells assessed as increase in Akt phosphorylation at 300 nM measured after 15 mins in presence of CB2 receptor antagonist, AM630 by western blot analysis; type: functional, cell-based
[33] = AUC(0 to t) in BALB/c mouse at 5 mg/kg, po; type: ADME, organism-based; design: dose 5 mg/kg, route po; details: in vivo
[34] = test system: Mus musculus; experiment: Antinociceptive activity against carrageenan-induced inflammatory C57BL/6 mouse model assessed as reduction in paw thickness at 20 mg/kg, ip measured at 5 hrs and 2 hrs following carrageenan and compound challenge respectively by digital caliper analysis; type: functional, organism-based
[35] = Tmax in BALB/c mouse at 1 mg/kg, iv; type: ADME, organism-based; details: in vivo
[36] = test system: CHO; experiment: Induction of Akt phosphorylation in Chinese hamster CHO cells at 1000 nM measured after 15 mins by western blot analysis; type: cell-based; details: Cricetulus griseus
[37] = Half life in mouse liver microsomes at 10 uM; type: ADME, Microsome
[38] = biological target: T1, Cannabinoid receptor 2; experiment: Agonist activity at human CB2 receptor expressed in CHO cells assessed as inhibition of forskolin-stimulated intracellular cAMP accumulation measured after 30 mins by Glosensor assay; type: functional, cell-based
[39] = Bioavailability in BALB/c mouse at 5 mg/kg, ip; type: ADME, organism-based; details: in vivo
[40] = biological target: Cannabinoid receptor 1 (Homo sapiens, UniProt P21554); experiment: Agonist activity at human CB1 receptor expressed in CHO cells assessed as inhibition of forskolin-stimulated intracellular cAMP accumulation measured after 30 mins by Glosensor assay; type: cell-based
[41] = Half life in human liver microsomes at 10 uM; type: ADME, Microsome
[42] = Intrinsic clearance in mouse liver at 10 uM measured per kg body weight; type: ADME, tissue-based
[43] = Toxicity against C57BL/6 mouse assessed as change in body temperature at 20 mg/kg, ip measured within 4 hrs by thermometer analysis; type: organism-based; details: in vivo
[44] = Cmax in BALB/c mouse at 1 mg/kg, iv; type: ADME, organism-based; design: dose 1 mg/kg, route iv; details: in vivo
[45] = Metabolic stability of the compound in mouse liver microsomes assessed as parent compound remaining at 10 uM measured after 60 mins; type: ADME, Microsome; details: read-out: Stability
[46] = biological target: T1, Cannabinoid receptor 2; experiment: Agonist activity at LgBiT-fused CB2 receptor (unknown origin) coexpressed with miniGalphai-SmBiT in HEK293T cells assessed as G-protein recruitment measured after 10 mins in presence of CB2 receptor antagonist, AM630 by NanoBiT luciferase assay; type: functional, cell-based

T1 sequence (P34972 whole entry): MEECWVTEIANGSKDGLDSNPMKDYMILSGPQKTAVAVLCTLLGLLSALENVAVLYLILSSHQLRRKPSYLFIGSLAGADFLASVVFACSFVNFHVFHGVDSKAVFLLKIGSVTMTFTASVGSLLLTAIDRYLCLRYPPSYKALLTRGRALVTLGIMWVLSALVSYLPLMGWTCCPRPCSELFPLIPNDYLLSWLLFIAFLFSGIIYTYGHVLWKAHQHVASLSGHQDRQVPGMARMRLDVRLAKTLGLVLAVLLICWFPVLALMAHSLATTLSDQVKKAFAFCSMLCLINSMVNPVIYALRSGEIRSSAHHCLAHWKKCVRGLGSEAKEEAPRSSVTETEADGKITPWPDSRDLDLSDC
Sequence of Cannabinoid receptor 1 (P21554 whole entry): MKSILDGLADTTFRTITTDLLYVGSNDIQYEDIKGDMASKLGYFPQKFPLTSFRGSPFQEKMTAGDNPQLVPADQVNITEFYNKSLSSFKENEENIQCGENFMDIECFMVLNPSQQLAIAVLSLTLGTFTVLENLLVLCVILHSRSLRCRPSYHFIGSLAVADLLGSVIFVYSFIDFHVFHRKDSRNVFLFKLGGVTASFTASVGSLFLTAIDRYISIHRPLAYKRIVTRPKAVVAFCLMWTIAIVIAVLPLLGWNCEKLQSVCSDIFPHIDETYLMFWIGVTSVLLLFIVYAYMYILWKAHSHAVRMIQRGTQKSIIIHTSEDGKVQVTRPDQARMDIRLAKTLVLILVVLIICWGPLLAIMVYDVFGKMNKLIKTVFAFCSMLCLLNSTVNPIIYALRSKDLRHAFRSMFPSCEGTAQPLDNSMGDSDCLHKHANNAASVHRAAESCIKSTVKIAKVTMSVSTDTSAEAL
Sequence of Cannabinoid receptor 2 (Homo sapiens), P34972 [UNDEFINED MUTATION] (P34972 whole entry, looked up, stated change not applied): as the sequence (P34972 whole entry) above

With `O=C1CC(c2nc(-c3ccc(F)c4cn[nH]c34)no2)CCCN1c1ccc(F)cc1` (stereo unspecified) the clearance [1] was 41.2 mL/min/kg, the AUC(0-t) [2] was 1830 ng·h/mL and the Activity [3] was “inactive”. It also gave a Cmax [4] of 621 ng/mL, a microsomal CLint at 10 µM [5] of 130 µL/min/mg and a fraction unbound [6] of 0.011. For the same compound, the half-life [7] was 56.4 min, the Cmax [8] was 1080 ng/mL and the Activity [9] was “Dose-Dependent Effect”. For the same compound, the Activity [10] was “inactive”, the Activity [11] was “Dose-Dependent Effect” and the half-life [12] was 70.8 min. For the same compound, the fraction unbound [13] was 0.074, the microsomal CLint at 10 µM [14] was 23 µL/min/mg and the bioavailability [15] was 80.5%. For the same compound, the Activity [16] was “inactive”, the CL/F [17] was 50.8 mL/min/kg and the MRT last [18] was 128 min. The Activity [19] was “inactive”, the CLH [20] was 28.8 mL/min/kg and the Activity [21] was “inactive”. For the same compound, the Tmax [22] was 19.8 min, the Activity [23] was “inactive” and the Tmax [24] was 25.2 min. For the same compound, the CL/F [25] was 45.8 mL/min/kg, the Activity [26] was “Dose-Dependent Effect” and the half-life [27] was 224 min. For the same compound, the EC50 [28] was 84.7 nM, the remaining at 1 h, 10 µM [29] was 46.3% and the half-life at 10 µM [30] was 10.7 min. The fraction unbound [31] was 0.032, the Activity [32] was “inactive” and the AUC(0-t) [33] was 1660 ng·h/mL. The Activity [34] was “Active”, the Tmax [35] was 4.8 min and the Activity [36] was “inactive”. For the same compound, the half-life at 10 µM [37] was 13.1 min, the EC50 [38] was 21 nM and the bioavailability [39] was 88.5%. The EC50 [40] was > 30000 nM, the half-life at 10 µM [41] was 60.3 min and the CLH [42] was 415 mL/min/kg. For the same compound, the Activity [43] was “Non-Toxic”, the Cmax [44] was 615 ng/mL and the remaining at 1 h, 10 µM [45] was 3.15%. For the same compound, the Activity [46] was “inactive”.
